Reference: US7713965B2, “7-substituted 3-carboxy-oxadiazino-quinolone derivatives, their preparation and their application as anti-bacterials” (Vetoquinol SA, priority 2008, dated 2010)

Structure (SMILES)	melting point
Cc1cc(NC2CCN(c3c(F)cc4c(=O)c(C(=O)O)cn5c4c3OCN5C)C2)no1 (centres unmarked) (hydrate or solvate)	263 °C (dec.)
CN1COc2c(N3CCC(CN(c4cnccn4)c4cnccn4)C3)c(F)cc3c(=O)c(C(=O)O)cn1c23 (centres unmarked) (hydrate or solvate)	213 to 215 °C
CN1COc2c(N3CCC(NC4=NCCS4)C3)c(F)cc3c(=O)c(C(=O)O)cn1c23 (centres unmarked) (hydrate or solvate)	265 to 267 °C
CN1COc2c(N3CCC(n4ccnn4)C3)c(F)cc3c(=O)c(C(=O)O)cn1c23 (centres unmarked) (hydrate or solvate)	264 °C (dec.)
CN1COc2c(N3CCC(c4nnn[nH]4)C3)c(F)cc3c(=O)c(C(=O)O)cn1c23 (centres unmarked) (hydrate or solvate)	250 °C (dec.)
CN1COc2c(N3CCC(NC(=O)c4ccco4)C3)c(F)cc3c(=O)c(C(=O)O)cn1c23 (centres unmarked) (hydrate or solvate)	306 to 308 °C
CN1COc2c(N3CCC(NC(=O)CC(F)(F)F)C3)c(F)cc3c(=O)c(C(=O)O)cn1c23 (centres unmarked) (hydrate or solvate)	292 °C (dec.)
CN1COc2c(N3CCC(NS(C)(=O)=O)C3)c(F)cc3c(=O)c(C(=O)O)cn1c23 (centres unmarked) (hydrate or solvate)	261 °C (dec.)
CO/N=C1\CCN(c2c(F)cc3c(=O)c(C(=O)O)cn4c3c2OCN4C)C1 (hydrate or solvate)	241 to 243 °C
CN1COc2c(N3CCC(Nc4cnccn4)CC3)c(F)cc3c(=O)c(C(=O)O)cn1c23 (hydrate or solvate)	239 °C (dec.)
CN1COc2c(N3CCC(Nc4ccccn4)CC3)c(F)cc3c(=O)c(C(=O)O)cn1c23 (hydrate or solvate)	264 °C (dec.)
CN1COc2c(N3CCC(NC(=O)c4ccco4)CC3)c(F)cc3c(=O)c(C(=O)O)cn1c23 (hydrate or solvate)	293 to 295 °C
CN1COc2c(N3CCC(N4CCCCC4)CC3)c(F)cc3c(=O)c(C(=O)O)cn1c23 (hydrate or solvate)	249 °C (dec.)
CN1COc2c(N3CCC(N4CCCC4)CC3)c(F)cc3c(=O)c(C(=O)O)cn1c23 (hydrate or solvate)	267 to 269 °C
CN1COc2c(N3CC[C@H](NC(=O)C(F)(F)F)C3)ccc3c(=O)c(C(=O)O)cn1c23 (hydrate or solvate)	310 °C (dec.)
Cc1nnc(NCC2CCN(c3c(F)cc4c(=O)c(C(=O)O)cn5c4c3OCN5C)C2)o1 (centres unmarked) (hydrate or solvate)	240 °C
CC1Oc2c(N3CC[C@H](NC(=O)C(F)(F)F)C3)ccc3c(=O)c(C(=O)O)cn(c23)N1C (some centres unmarked) (hydrate or solvate)	260 °C

Structure (SMILES)	melting point
CC1Oc2c(N3CC[C@@H](Nc4nccs4)C3)ccc3c(=O)c(C(=O)O)cn(c23)N1C (some centres unmarked) (hydrate or solvate)	260 to 263 °C
CN1n2cc(C(=O)O)c(=O)c3ccc(N4CC[C@@H](Nc5nccs5)C4)c(c32)OC1(C)C (hydrate or solvate)	287 °C (dec.)
CC1Oc2c(N3C[C@H](N)C(C)(C)C3)c(F)cc3c(=O)c(C(=O)O)cn(c23)N1C (some centres unmarked) (hydrate or solvate)	212 to 214 °C
CN1COc2c(N3CCC(CNC(=O)c4ccco4)C3)c(F)cc3c(=O)c(C(=O)O)cn1c23 (centres unmarked) (hydrate or solvate)	278 to 280 °C
CN1n2cc(C(=O)O)c(=O)c3cc(F)c(N4C[C@H](N)C(C)(C)C4)c(c32)OC1(C)C (hydrate or solvate)	255 to 257 °C
CN1COc2c(N3CC[C@@H](n4ccnn4)C3)c(F)cc3c(=O)c(C(=O)O)cn1c23 (hydrate or solvate)	235 °C (dec.)
Cc1nnc(NC2CCN(c3c(F)cc4c(=O)c(C(=O)O)cn5c4c3OCN5C)C2)o1 (centres unmarked) (hydrate or solvate)	285 °C
CN1n2cc(C(=O)O)c(=O)c3cc(F)c(N4CC[C@H](NC(=O)C(F)(F)F)C4)c(c32)OC1(C)C (hydrate or solvate) [51]	217 to 219 °C
CN1n2cc(C(=O)O)c(=O)c3cc(F)c(N4CC[C@H](NC(=O)C(F)(F)F)C4)c(c32)OC1(C)C (hydrate or solvate) [53]	283 °C
CN1COc2c(N3CCC(CNc4cnccn4)C3)c(F)cc3c(=O)c(C(=O)O)cn1c23 (centres unmarked) (hydrate or solvate) [Example 1, 8-fluoro-3-methyl-6-oxo-9-[3-(pyrazin-2-ylaminomethyl)-pyrrolidin-1-yl]-2,3-dihydro-6H-1-oxa-3,3a-diaza-phenalene-5-carboxylic acid]	238 to 240 °C
CN1COc2c(N3CCC(Nc4cnccn4)C3)c(F)cc3c(=O)c(C(=O)O)cn1c23 (centres unmarked) (hydrate or solvate) [Example 7]	269 °C (dec.)
CN1COc2c(N3CCC(Nc4ccccn4)C3)c(F)cc3c(=O)c(C(=O)O)cn1c23 (centres unmarked) (hydrate or solvate) [Example 8]	278 to 280 °C
CN1COc2c(N3CCC(Nc4nncs4)C3)c(F)cc3c(=O)c(C(=O)O)cn1c23 (centres unmarked) (hydrate or solvate) [Example 10, 8-Fluoro-3-methyl-6-oxo-9-[3-([1,3,4]thiadiazol-2-ylamino)-pyrrolidin-1-yl]-2,3-dihydro-6H1-oxa-3,3a-diaza-phenalene-5-carboxylic acid]	320 °C (dec.)
CN1COc2c(N3CC[C@H](Nc4nccs4)C3)c(F)cc3c(=O)c(C(=O)O)cn1c23 (hydrate or solvate) [Example 18, 8-Fluoro-3-methyl-6-oxo-9-[(S)-3-(thiazol-2-ylamino)-pyrrolidin-1-yl]-2,3dihydro-6H-1-oxa-3,3a-diaza-phenalene-5-carboxylic acid]	275 °C
CN1COc2c(N3CC[C@@H](Nc4nccs4)C3)c(F)cc3c(=O)c(C(=O)O)cn1c23 (hydrate or solvate) [Example 19, 8-Fluoro-3-methyl-6-oxo-9-[(R)-3-(thiazol-2-ylamino)-pyrrolidin-1-yl]-2,3-dihydro-6H-1-oxa-3,3a-diaza-phenalene-5-carboxylic acid]	245 to 250 °C
CN1COc2c(N3CCC(NC(=O)C(F)(F)F)C3)c(F)cc3c(=O)c(C(=O)O)cn1c23 (centres unmarked) (hydrate or solvate) [Example 27, 8-Fluoro-3-methyl-6-oxo-9-[3-(2,2,2-trifluoro-acetylamino)-pyrrolidin-1-yl]-2,3-dihydro-6H-1-oxa-3,3a-diaza-phenalene-5-carboxylic acid]	281 to 283 °C

Next, values leading:

melting point	Structure (SMILES)
285 °C (dec.)	CN1COc2c(N3CCC(Nc4ncns4)C3)c(F)cc3c(=O)c(C(=O)O)cn1c23 (centres unmarked) (hydrate or solvate)
266 °C (dec.)	Cc1nc(NC2CCN(c3c(F)cc4c(=O)c(C(=O)O)cn5c4c3OCN5C)C2)sc1C (centres unmarked) (hydrate or solvate)
260 °C (dec.)	Cc1csc(NC2CCN(c3c(F)cc4c(=O)c(C(=O)O)cn5c4c3OCN5C)C2)n1 (centres unmarked) (hydrate or solvate)
265 °C (dec.)	Cc1cnc(NC2CCN(c3c(F)cc4c(=O)c(C(=O)O)cn5c4c3OCN5C)C2)s1 (centres unmarked) (hydrate or solvate)
265 °C	Cc1cc(NC2CCN(c3c(F)cc4c(=O)c(C(=O)O)cn5c4c3OCN5C)C2)sn1 (centres unmarked) (hydrate or solvate)
244 °C (dec.)	Cc1cc(NC2CCN(c3c(F)cc4c(=O)c(C(=O)O)cn5c4c3OCN5C)C2)on1 (centres unmarked) (hydrate or solvate)
281 °C (dec.)	CN1COc2c(N3CC(O)C(C)(C)C3)c(F)cc3c(=O)c(C(=O)O)cn1c23 (centres unmarked) (hydrate or solvate)
252 to 253 °C	CN1COc2c(N3CCC(O)(c4nccs4)C3)c(F)cc3c(=O)c(C(=O)O)cn1c23 (centres unmarked) (hydrate or solvate)
268 to 270 °C	CN1COc2c(N3CCC(CNc4nccs4)C3)c(F)cc3c(=O)c(C(=O)O)cn1c23 (centres unmarked) (hydrate or solvate)
280 °C	CN1COc2c(N3CCC(Nc4nccs4)CC3)c(F)cc3c(=O)c(C(=O)O)cn1c23 (hydrate or solvate)
275 °C (dec.)	CN1COc2c(N3CC[C@@H](Nc4nccs4)C3)ccc3c(=O)c(C(=O)O)cn1c23 (hydrate or solvate)
224 to 226 °C	CC1Oc2c(N3CC[C@@H](Nc4nccs4)C3)c(F)cc3c(=O)c(C(=O)O)cn(c23)N1C (some centres unmarked) (hydrate or solvate)
235 to 237 °C	CN1n2cc(C(=O)O)c(=O)c3cc(F)c(N4CC[C@@H](Nc5nccs5)C4)c(c32)OC1(C)C (hydrate or solvate)
265 °C (dec.)	CN1COc2c(N3C[C@@H](Nc4nccs4)C(C)(C)C3)c(F)cc3c(=O)c(C(=O)O)cn1c23 (hydrate or solvate)
271 to 273 °C	CN1COc2c(N3C[C@H](Nc4nccs4)C(C)(C)C3)c(F)cc3c(=O)c(C(=O)O)cn1c23 (hydrate or solvate)
235 °C (dec.)	CN1COc2c(N3CC[C@H](n4ccnn4)C3)c(F)cc3c(=O)c(C(=O)O)cn1c23 (hydrate or solvate)
255 to 257 °C	Cc1cc(N[C@@H]2CCN(c3c(F)cc4c(=O)c(C(=O)O)cn5c4c3OCN5C)C2)on1 (hydrate or solvate)
255 to 257 °C	Cc1cc(N[C@H]2CCN(c3c(F)cc4c(=O)c(C(=O)O)cn5c4c3OCN5C)C2)on1 (hydrate or solvate)
245 °C (dec.)	CN1COc2c(N3CC[C@H](Nc4ncc[nH]4)C3)c(F)cc3c(=O)c(C(=O)O)cn1c23 (hydrate or solvate)
225 °C (dec.)	CN1COc2c(N3CC[C@@H](Nc4ncc[nH]4)C3)c(F)cc3c(=O)c(C(=O)O)cn1c23 (hydrate or solvate)
222 to 224 °C	CN(c1nccs1)[C@@H]1CCN(c2c(F)cc3c(=O)c(C(=O)O)cn4c3c2OCN4C)C1 (hydrate or solvate)
240 to 245 °C	CN1COc2c(N3CC(N)C(c4nccs4)C3)c(F)cc3c(=O)c(C(=O)O)cn1c23 (centres unmarked) (hydrate or solvate)
255 °C (dec.)	CN1COc2c(N3CC[C@@H](Nc4cnccn4)C3)c(F)cc3c(=O)c(C(=O)O)cn1c23 (hydrate or solvate)
